{
  "source": "paper PMC8869507",
  "about": "“Gel-Forming of Self-Assembling Peptides Functionalized with Food Bioactive Motifs Modulate DPP-IV and ACE Inhibitory Activity in Human Intestinal Caco-2 Cells” (Biomedicines, 2022)",
  "key": {"ACE [1]": {"test_system": "ACE", "design": "method as in BIOPEP", "settings": "from casein and soybean hydrolysates; ref BIOPEP; cited from earlier work"}, "[2]": {"test": "Atomic force microscopy (AFM) of peptide nanostructures", "assay_type": "physicochemical", "settings": "AFM tapping mode, 0.01% w/v in distilled water, sonicated 30 min, on mica", "method": "AFM measurements were captured in tapping mode using a Tosca system (Anton Paar, Graz, Austria) using single-beam silicon cantilever probes. Peptides were dissolved in distilled water at a final concentration of 0.01% w/v and sonicated for 30 min, the same day as imaging. Then, 5 μL of peptide solution were deposited for 5 min on freshly cleaved mica, and distilled water was used to remove peptides loosely bound to the mica."}, "ACE [3]": {"test_system": "ACE", "test": "In vitro evaluation of ACE inhibition activity (HHL substrate)", "assay_type": "biochemical, porcine kidney", "settings": "1 mg/mL; HHL 2.5 mM, pH 8.3, preincubation 15 min 37 °C, incubation 60 min 37 °C, HPLC of hippuric acid", "method": "(§1) Peptide IAVP (1 mg/mL) was tested as previously described evaluating its DPP-IV and ACE inhibitory activity, respectively. For the evaluation of in vitro ACE inhibitory activity, a biochemical assay was used (further details are reported in supplementary materials).\n(§2) Supplementary Materials for Gel‐forming of self‐assembling peptides functionalized with food bioactive motifs modulate DPP‐IV and ACE inhibitory ac‐ tivity in human intestinal Caco‐2 cells\n(§3) Raffaele Pugliese1,*, Martina Bartolomei2, Carlotta Bollati2, Giovanna Boschin2, Anna Arnoldi2, and Carmen […]\n(§4) In vitro evaluation of ACE inhibition activity. […]\n(§5) The evaluation of the inhibition of ACE activity was based on the comparison between the concentrations of HA in the presence or absence of the inhibitor (Inhibitor Blank). The phenomenon of autolysis of HHL to give HA was evaluated by a reaction blank, i.e. a sample with the higher inhibitor concentration but without the enzyme. The percentage of ACE inhibition was calculated considering the area of the HA peak with the following formula: […] where AIB is the area of HA in the Inhibitor Blank (IB) sample (i.e., sample with enzyme but without inhibitor), AN is the area of HA in the samples containing different inhibitor amounts, and ARB is the area of HA in the Reaction Blank (RB) sample (i.e., sample without enzyme and with inhibitor at the highest concentration). […]"}, "DPP-IV [4]": {"test_system": "DPP-IV", "test": "In vitro DPP-IV activity assay", "assay_type": "biochemical", "settings": "IAVP up to 1 mg/mL (1, 10, 100, 500 and 1000 μg/mL), Tris-HCl pH 8.0, H-Gly-Pro-AMC, 37°, 30 min, fluorescence 350/465 nm, triplicate", "method": "as §1, §2, §3, §4, §5"}, "DPP-IV [5]": {"test_system": "DPP-IV", "settings": "cited from earlier work; for DPP-IV activity in situ: human Caco-2 cells; for DPP-IV activity in situ / DPP-IV activity in vitro: ref [1]; for pIC50: plain solutions, ref [4]", "excerpt": "IAVPTGVA and LTFPGSAED (dubbed, respectively, Soy1 and Lup1) are two peptides derived from the hydrolysis of soybean glycinin and lupin β-conglutin, respectively. […] This difference was explained ..."}, "ACE [6]": {"test_system": "ACE", "settings": "ACE activity expressed by Caco-2 cells, dose–response; no reference printed in the sentence (sentence before: ref [28]); cited from earlier work", "excerpt": "This difference was explained ..."}, "HMGCoAR": {"test_system": "HMGCoAR", "settings": "in vitro; ref [1],[2],[3],[4]; cited from earlier work", "excerpt": "(§6) IAVPTGVA and LTFPGSAED (dubbed, respectively, Soy1 and Lup1) are two peptides derived from the hydrolysis of soybean glycinin and lupin β-conglutin, respectively."}, "HepG2 cells": {"test_system": "HepG2 cells", "settings": "human HepG2 cells, ref [3],[5], cited from earlier work; for LDL uptake: LDL from the extracellular environment; for LDLR protein levels: through HMGCoAR inhibition", "excerpt": "as §6"}, "DPP-IV and ACE": {"test_system": "DPP-IV and ACE", "settings": "cited from earlier work; for concentration encapsulated needed for positive effect on DPP-IV and ACE: encapsulated in RADA16 hydrogel, previously reported by the authors, reference not given; for capability of inhibiting DPP-IV and ACE: non-covalently entrapped into RADA16, ref [10]", "excerpt": "(§7) However, such food-derived peptides show low stability, bioavailability (due to their rapid degradation by active peptidases located on the intestinal microvilli), and a poor propensity to form functional biomaterials (i.e., hydrogels), thus precluding their practical applications."}, "proteases": {"test_system": "proteases", "settings": "cited from earlier work; for bioavailability / resistance towards proteases: non-covalent encapsulation in RADA16 hydrogel vs plain solutions, previously reported by the authors, reference not given; for stability: non-covalently entrapped into RADA16, ref [10]", "excerpt": "as §7"}, "Caco-2 cells": {"test_system": "Caco-2 cells", "settings": "cited from earlier work"}, "ACE [7]": {"test_system": "ACE", "design": "method as in PMID 32223157", "settings": "metabolite of Lup1; ref [28]; cited from earlier work"}, "DPP-IV [8]": {"test_system": "DPP-IV", "design": "method as in PMID 32223157", "settings": "metabolite of Lup1; ref [28]; cited from earlier work"}, "[9]": {"settings": "non-covalently entrapped in RADA16; previously reported by the authors, reference not given; cited from earlier work"}, "[10]": {"settings": "DPP-IV expressed by Caco-2 cells, read-out: IC50 cellular DPP-IV"}, "[11]": {"settings": "purified enzymes, read-out: IC50 in vitro DPP-IV"}},
  "note": "pIC50: −log10 of the molar value. Where two headings read alike, the source gives them in different places.",
  "data": [
    {"substance": "AVP", "values": [
      {"measurement": "known ACE inhibitor peptide", "setting": "ACE [1]", "result": "known ACE inhibitor peptides"}
    ]},
    {"substance": "Ac-IAVPTGVAGGGRADARADARADARADA-NH2 [fAP-Soy1, RADA16 functionalized at the N-terminus with Soy1 through a three-glycines spacer]", "values": [
      {"measurement": "nanostructure morphology", "setting": "[2]", "result": "short single nanofibers"}
    ]},
    {"substance": "Ac-LTFPGSAEDGGGRADARADARADARADA-NH2 [fAP-Lup1, RADA16 functionalized at the N-terminus with Lup1 through a three-glycines spacer]", "values": [
      {"measurement": "nanostructure morphology", "setting": "[2]", "result": "did not form nanofibers, but instead led to the formation of sparse round aggregates"}
    ]},
    {"substance": "IAVP [small peptide from degradation of Soy1]", "values": [
      {"measurement": "reduction of in vitro ACE activity", "setting": "ACE [3]", "result": "20.1 ± 0.5", "unit": "%"},
      {"measurement": "DPP-IV inhibitory activity", "setting": "DPP-IV [4]", "result": "totally ineffective on DPP-IV"}
    ]},
    {"substance": "IAVPTGVA [Soy1]", "values": [
      {"measurement": "DPP-IV activity in situ", "setting": "DPP-IV [5]", "result": "drop the in vitro and in situ human Caco-2 cells DPP-IV activity"},
      {"measurement": "DPP-IV activity in vitro", "setting": "DPP-IV [5]", "result": "drop the in vitro and in situ human Caco-2 cells DPP-IV activity"},
      {"measurement": "pIC50", "setting": "DPP-IV [5]; [10]", "result": 3.65},
      {"measurement": "pIC50", "setting": "DPP-IV [5]; [11]", "result": 3.97},
      {"measurement": "pIC50", "setting": "ACE [6]", "result": 4.83},
      {"measurement": "HMGCoAR inhibition", "setting": "HMGCoAR", "result": "act as in vitro HMGCoAR and DPP-IV inhibitors"},
      {"measurement": "LDL uptake", "setting": "HepG2 cells", "result": "improved the ability of hepatic cells to uptake LDL"},
      {"measurement": "LDLR protein levels", "setting": "HepG2 cells", "result": "upregulation of the LDLR protein levels"},
      {"measurement": "concentration encapsulated needed for positive effect on DPP-IV and ACE", "setting": "DPP-IV and ACE", "result": "more than 100 μM"},
      {"measurement": "capability of inhibiting DPP-IV and ACE", "setting": "DPP-IV and ACE", "result": "significantly improved as well as their capability of inhibiting DPP-IV and ACE"},
      {"measurement": "bioavailability", "setting": "proteases", "result": "higher bioavailability"},
      {"measurement": "resistance towards proteases", "setting": "proteases", "result": "higher resistance towards the proteases"},
      {"measurement": "stability", "setting": "proteases", "result": "significantly improved"},
      {"measurement": "transport across the intestinal barrier", "setting": "Caco-2 cells; Caco-2 trans-epithelial transport, ref [28],[29]", "result": "able to across the intestinal barrier"},
      {"measurement": "break-down fragments by intestinal peptidases", "setting": "Caco-2 cells; apical side of Caco-2 cells, trans-epithelial transport, ref [29]", "result": "metabolized in three breakdown fragments (AVPTGVA, IAVP, and IAV)"},
      {"measurement": "susceptibility to metabolic activity of peptidase", "setting": "Caco-2 cells; apical side of human intestinal Caco-2 cells, compared with Lup1, ref [28]", "result": "more suitable for the metabolic activity of peptidase"}
    ]},
    {"substance": "LTFPG [peptide cleaved from Lup1]", "values": [
      {"measurement": "ACE inhibitory activity", "setting": "ACE [7]", "result": "maintains its ACE inhibitory activity"},
      {"measurement": "DPP-IV inhibitory activity", "setting": "DPP-IV [8]", "result": "losing that against DPP-IV"}
    ]},
    {"substance": "LTFPGSAED [Lup1]", "values": [
      {"measurement": "DPP-IV activity in situ", "setting": "DPP-IV [5]", "result": "drop the in vitro and in situ human Caco-2 cells DPP-IV activity"},
      {"measurement": "DPP-IV activity in vitro", "setting": "DPP-IV [5]", "result": "drop the in vitro and in situ human Caco-2 cells DPP-IV activity"},
      {"measurement": "pIC50", "setting": "DPP-IV [5]; [10]", "result": 3.68},
      {"measurement": "pIC50", "setting": "DPP-IV [5]; [11]", "result": 3.64},
      {"measurement": "pIC50", "setting": "ACE [6]", "result": 4.86},
      {"measurement": "HMGCoAR inhibition", "setting": "HMGCoAR", "result": "act as in vitro HMGCoAR and DPP-IV inhibitors"},
      {"measurement": "LDL uptake", "setting": "HepG2 cells", "result": "improved the ability of hepatic cells to uptake LDL"},
      {"measurement": "LDLR protein levels", "setting": "HepG2 cells", "result": "upregulation of the LDLR protein levels"},
      {"measurement": "release from RADA16 hydrogel", "setting": "[9]", "result": "regularly delivered by the RADA16 hydrogel during the 360 min of controlled release tests"},
      {"measurement": "concentration encapsulated needed for positive effect on DPP-IV and ACE", "setting": "DPP-IV and ACE", "result": "more than 100 μM"},
      {"measurement": "capability of inhibiting DPP-IV and ACE", "setting": "DPP-IV and ACE", "result": "significantly improved as well as their capability of inhibiting DPP-IV and ACE"},
      {"measurement": "bioavailability", "setting": "proteases", "result": "higher bioavailability"},
      {"measurement": "resistance towards proteases", "setting": "proteases", "result": "higher resistance towards the proteases"},
      {"measurement": "stability", "setting": "proteases", "result": "significantly improved"},
      {"measurement": "transport across the intestinal barrier", "setting": "Caco-2 cells", "result": "able to across the intestinal barrier"}
    ]},
    {"substance": "RADA16", "values": [
      {"measurement": "nanostructure morphology", "setting": "[2]", "result": "self-assembles into long nanofibers"}
    ]}
  ]
}
